Laboratory results taken from ChEMBL document CHEMBL4477271, “Synthesis and antitumor activity evaluation of 4,6-disubstituted quinazoline derivatives as novel PI3K inhibitors” (Bioorg Med Chem Lett, 2016).

Assays:
HCT-116 = test: Antiproliferative activity against human HCT116 cells harboring PI3CA H1047R mutant after 72 hrs by MTT assay; format: functional, cell-based; details: HCT-116, 72 h
MCF7 = test: Antiproliferative activity against human MCF7 cells harboring PI3CA E545K mutant after 72 hrs by MTT assay; format: functional, cell-based; details: MCF7, 72 h
[1] = biological target: Phosphatidylinositol 4,5-bisphosphate 3-kinase catalytic subunit alpha isoform (Homo sapiens, UniProt P42336); test: Inhibition of PI3Kalpha (unknown origin) assessed as reduction in ATP depletion using lipid substrate after 40 mins by Kinase-Glo luminescent assay
Chain of Phosphatidylinositol 4,5-bisphosphate 3-kinase catalytic subunit alpha isoform (P42336 whole entry, canonical isoform): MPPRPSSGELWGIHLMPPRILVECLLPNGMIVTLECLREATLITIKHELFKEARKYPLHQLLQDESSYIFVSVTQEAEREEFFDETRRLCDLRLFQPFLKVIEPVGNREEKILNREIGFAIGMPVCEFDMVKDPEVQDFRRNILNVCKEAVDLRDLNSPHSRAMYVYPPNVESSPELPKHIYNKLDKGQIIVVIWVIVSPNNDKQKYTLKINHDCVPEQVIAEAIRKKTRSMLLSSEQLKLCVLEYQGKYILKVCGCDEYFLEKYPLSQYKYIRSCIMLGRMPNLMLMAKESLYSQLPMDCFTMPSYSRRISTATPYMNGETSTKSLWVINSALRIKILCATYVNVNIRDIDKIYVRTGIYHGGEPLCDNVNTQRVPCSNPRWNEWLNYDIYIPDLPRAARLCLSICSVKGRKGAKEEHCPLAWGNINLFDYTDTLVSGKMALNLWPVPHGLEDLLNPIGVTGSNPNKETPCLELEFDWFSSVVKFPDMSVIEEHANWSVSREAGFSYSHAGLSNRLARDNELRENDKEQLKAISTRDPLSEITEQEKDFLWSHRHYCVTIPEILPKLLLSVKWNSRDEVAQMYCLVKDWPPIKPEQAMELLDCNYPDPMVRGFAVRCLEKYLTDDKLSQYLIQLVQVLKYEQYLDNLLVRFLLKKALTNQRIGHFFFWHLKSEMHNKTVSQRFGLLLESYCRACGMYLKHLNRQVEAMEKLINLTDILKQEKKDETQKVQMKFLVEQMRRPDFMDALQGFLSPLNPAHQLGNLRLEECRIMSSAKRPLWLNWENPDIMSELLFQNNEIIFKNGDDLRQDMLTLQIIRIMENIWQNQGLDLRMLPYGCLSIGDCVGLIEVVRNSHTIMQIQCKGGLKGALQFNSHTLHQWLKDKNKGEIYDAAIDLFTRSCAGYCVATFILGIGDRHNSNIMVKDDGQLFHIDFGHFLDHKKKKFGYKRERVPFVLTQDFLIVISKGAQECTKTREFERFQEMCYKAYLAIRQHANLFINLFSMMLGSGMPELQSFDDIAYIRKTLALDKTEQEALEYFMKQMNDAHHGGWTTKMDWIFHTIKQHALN

[2] = biological target: Phosphatidylinositol 4,5-bisphosphate 3-kinase catalytic subunit beta isoform (Homo sapiens, UniProt P42338); test: Inhibition of PI3Kbeta (unknown origin) assessed as reduction in ATP depletion using lipid substrate after 40 mins by Kinase-Glo luminescent assay
Chain of Phosphatidylinositol 4,5-bisphosphate 3-kinase catalytic subunit beta isoform (P42338 whole entry, canonical isoform): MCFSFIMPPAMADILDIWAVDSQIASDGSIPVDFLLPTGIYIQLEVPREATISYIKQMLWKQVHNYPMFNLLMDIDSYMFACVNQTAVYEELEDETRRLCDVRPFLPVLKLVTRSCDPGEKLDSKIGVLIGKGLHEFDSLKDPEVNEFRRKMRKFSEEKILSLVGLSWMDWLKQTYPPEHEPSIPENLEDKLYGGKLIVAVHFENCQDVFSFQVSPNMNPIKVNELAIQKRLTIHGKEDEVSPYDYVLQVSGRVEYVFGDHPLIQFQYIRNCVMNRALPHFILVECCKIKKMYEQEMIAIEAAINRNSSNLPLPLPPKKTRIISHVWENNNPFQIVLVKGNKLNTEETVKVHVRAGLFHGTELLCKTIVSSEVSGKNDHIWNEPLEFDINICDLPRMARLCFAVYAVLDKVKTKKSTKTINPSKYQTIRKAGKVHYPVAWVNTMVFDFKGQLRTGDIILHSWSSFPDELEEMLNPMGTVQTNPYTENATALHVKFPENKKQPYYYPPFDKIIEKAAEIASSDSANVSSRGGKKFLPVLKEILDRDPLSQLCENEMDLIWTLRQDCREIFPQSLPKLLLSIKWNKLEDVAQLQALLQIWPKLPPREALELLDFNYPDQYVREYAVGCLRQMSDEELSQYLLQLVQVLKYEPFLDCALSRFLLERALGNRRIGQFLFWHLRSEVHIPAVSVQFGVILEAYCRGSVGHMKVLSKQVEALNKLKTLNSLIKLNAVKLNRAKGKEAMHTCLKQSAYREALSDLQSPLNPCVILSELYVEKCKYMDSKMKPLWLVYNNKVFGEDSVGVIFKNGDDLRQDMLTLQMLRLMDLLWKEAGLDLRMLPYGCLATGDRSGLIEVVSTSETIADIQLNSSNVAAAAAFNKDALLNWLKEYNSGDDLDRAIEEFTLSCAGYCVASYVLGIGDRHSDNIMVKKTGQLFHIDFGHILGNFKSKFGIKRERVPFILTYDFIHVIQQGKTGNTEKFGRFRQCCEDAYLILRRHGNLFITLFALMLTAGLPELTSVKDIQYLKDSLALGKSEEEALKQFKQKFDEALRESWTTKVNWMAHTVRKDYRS

[3] = biological target: T1, Phosphatidylinositol 4,5-bisphosphate 3-kinase catalytic subunit delta isoform (Homo sapiens, UniProt O00329); test: Inhibition of PI3Kdelta (unknown origin) assessed as reduction in ATP depletion using lipid substrate after 40 mins by Kinase-Glo luminescent assay
T1 sequence (O00329 whole entry): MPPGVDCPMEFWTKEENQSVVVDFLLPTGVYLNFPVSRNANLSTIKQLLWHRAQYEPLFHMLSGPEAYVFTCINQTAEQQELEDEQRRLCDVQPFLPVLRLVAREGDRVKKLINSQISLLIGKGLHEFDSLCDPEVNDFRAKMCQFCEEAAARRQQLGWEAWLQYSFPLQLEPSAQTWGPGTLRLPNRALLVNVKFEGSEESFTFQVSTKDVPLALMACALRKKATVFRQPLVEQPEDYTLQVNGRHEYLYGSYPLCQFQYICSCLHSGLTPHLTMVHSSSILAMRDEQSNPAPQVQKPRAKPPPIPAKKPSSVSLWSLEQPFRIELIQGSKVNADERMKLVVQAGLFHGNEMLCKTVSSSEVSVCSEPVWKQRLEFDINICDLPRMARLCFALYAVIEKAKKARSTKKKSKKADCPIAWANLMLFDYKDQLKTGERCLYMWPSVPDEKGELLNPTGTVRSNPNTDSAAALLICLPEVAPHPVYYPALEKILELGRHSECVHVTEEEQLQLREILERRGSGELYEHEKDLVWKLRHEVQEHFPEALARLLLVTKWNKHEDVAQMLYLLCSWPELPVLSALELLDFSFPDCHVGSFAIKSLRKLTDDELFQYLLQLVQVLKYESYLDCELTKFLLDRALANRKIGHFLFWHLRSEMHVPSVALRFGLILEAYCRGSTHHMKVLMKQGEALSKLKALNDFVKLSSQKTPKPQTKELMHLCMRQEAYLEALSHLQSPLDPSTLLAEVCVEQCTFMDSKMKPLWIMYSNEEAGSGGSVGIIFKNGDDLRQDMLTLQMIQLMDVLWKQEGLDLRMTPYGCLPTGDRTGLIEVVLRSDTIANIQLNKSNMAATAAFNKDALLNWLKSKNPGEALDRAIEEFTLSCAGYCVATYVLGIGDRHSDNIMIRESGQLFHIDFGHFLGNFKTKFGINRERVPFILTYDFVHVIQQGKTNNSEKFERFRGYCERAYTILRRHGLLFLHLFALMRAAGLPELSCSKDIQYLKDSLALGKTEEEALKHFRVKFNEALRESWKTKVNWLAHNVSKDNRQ

[4] = biological target: Phosphatidylinositol 4,5-bisphosphate 3-kinase catalytic subunit gamma isoform (Homo sapiens, UniProt P48736); test: Inhibition of PI3Kgamma (unknown origin) assessed as reduction in ATP depletion using lipid substrate after 40 mins by Kinase-Glo luminescent assay
Chain of Phosphatidylinositol 4,5-bisphosphate 3-kinase catalytic subunit gamma isoform (P48736 whole entry, canonical isoform): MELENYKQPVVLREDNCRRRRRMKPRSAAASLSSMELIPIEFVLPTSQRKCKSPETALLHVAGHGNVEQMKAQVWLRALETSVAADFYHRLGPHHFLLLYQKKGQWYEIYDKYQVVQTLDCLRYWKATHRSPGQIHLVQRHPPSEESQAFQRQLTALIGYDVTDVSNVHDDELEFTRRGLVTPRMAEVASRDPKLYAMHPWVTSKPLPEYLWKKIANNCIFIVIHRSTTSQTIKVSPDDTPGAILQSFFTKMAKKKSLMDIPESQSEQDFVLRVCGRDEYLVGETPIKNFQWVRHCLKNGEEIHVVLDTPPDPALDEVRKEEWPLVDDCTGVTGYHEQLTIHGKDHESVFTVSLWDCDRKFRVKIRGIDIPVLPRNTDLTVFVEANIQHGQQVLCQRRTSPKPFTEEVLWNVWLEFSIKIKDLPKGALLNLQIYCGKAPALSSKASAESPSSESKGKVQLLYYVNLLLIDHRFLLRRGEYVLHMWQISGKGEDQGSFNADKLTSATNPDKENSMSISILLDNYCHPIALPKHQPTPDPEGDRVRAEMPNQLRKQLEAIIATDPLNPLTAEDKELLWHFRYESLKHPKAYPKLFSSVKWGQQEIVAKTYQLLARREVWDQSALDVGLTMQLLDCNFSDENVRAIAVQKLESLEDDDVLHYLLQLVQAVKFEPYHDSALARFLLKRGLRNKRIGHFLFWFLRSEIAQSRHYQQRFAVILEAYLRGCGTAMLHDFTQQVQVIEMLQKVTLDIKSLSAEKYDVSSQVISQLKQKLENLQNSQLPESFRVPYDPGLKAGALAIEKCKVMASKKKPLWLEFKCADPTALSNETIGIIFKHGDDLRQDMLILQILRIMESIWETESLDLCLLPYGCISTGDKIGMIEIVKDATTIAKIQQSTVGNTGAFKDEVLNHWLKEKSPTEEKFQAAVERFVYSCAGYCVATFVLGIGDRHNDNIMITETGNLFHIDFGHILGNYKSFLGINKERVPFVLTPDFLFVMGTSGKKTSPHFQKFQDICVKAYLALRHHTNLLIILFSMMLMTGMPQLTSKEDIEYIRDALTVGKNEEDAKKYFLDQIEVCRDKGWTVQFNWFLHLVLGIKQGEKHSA

CCRF S-180 [5] = test: Antitumor activity against mouse S180 cells implanted in mouse assessed as tumor growth inhibition at 5 mg/kg, po qd for 8 days relative to control; format: functional; details: CCRF S-180, po, 192 h, read-out: TGI
CCRF S-180 [6] = test: Antitumor activity against mouse S180 cells implanted in mouse assessed as tumor growth inhibition at 15 mg/kg, po qd for 8 days relative to control; format: functional; details: CCRF S-180, po, 192 h, read-out: TGI
CCRF S-180 [7] = test: Antitumor activity against mouse S180 cells implanted in mouse assessed as tumor growth inhibition at 50 mg/kg, po qd for 8 days relative to control; format: functional; details: CCRF S-180, po, 192 h, read-out: TGI
[8] = Toxicity in mouse implanted with mouse S180 cells assessed as body weight loss at 5 to 50 mg/kg, po qd for 8 days; format: organism-based; details: in vivo, 192 h

COc1ccc(-c2ccc3ncnc(NCCN4CCCCC4)c3c2)cc1C(N)=O
IC50 (HCT-116): 29.4 µM | IC50 (MCF7): 39.1 µM

COc1ccc(-c2ccc3ncnc(NCCN(C)C)c3c2)cn1
IC50 (HCT-116): 15.8 µM | IC50 (MCF7): 2.97 µM

COc1ncc(-c2ccc3ncnc(NCCN(C)C)c3c2)cc1C#N
IC50 (HCT-116): 0.56 µM | IC50 (MCF7): 3.23 µM | IC50 [1]: 3.01 µM

COc1ncc(-c2ccc3ncnc(OCCN(C)C)c3c2)cc1[N+](=O)[O-]
IC50 (HCT-116): 9.38 µM | IC50 (MCF7): 7.26 µM

CCN(CC)CCNc1ncnc2ccc(-c3cnc(OC)c([N+](=O)[O-])c3)cc12
IC50 (HCT-116): 7.33 µM | IC50 (MCF7): 16.3 µM

COc1ccc(-c2ccc3ncnc(NCCN4CCCCC4)c3c2)cn1
IC50 (HCT-116): 22.2 µM | IC50 (MCF7): 2.42 µM

COc1ncc(-c2ccc3ncnc(NCCN4CCCCC4)c3c2)cc1C#N
IC50 (HCT-116): 2.68 µM | IC50 (MCF7): 2.74 µM

COc1ncc(-c2ccc3ncnc(OCCN(C)C)c3c2)cc1C#N
IC50 (HCT-116): 5.16 µM | IC50 (MCF7): 6.68 µM

COc1ncc(-c2ccc3ncnc(NCCN4CCOCC4)c3c2)cc1C#N
IC50 (HCT-116): 0.51 µM | IC50 (MCF7): 2.1 µM | IC50 [1]: 0.465 µM | IC50 [2]: 0.3 µM | IC50 [3]: 0.037 µM | IC50 [4]: 0.934 µM | inhibition in vivo at 5 mg/kg (CCRF S-180 [5]): 33% | inhibition in vivo at 15 mg/kg (CCRF S-180 [6]): 49% | inhibition in vivo at 50 mg/kg (CCRF S-180 [7]): 68.4% | Activity [8]: Non-Toxic

COc1ncc(-c2ccc3ncnc(NCCN4CCOCC4)c3c2)cc1[N+](=O)[O-]
IC50 (HCT-116): 1.8 µM | IC50 (MCF7): 2.87 µM

COc1ncc(-c2ccc3ncnc(NCCN4CCCC4)c3c2)cc1C#N
IC50 (HCT-116): 2.35 µM | IC50 (MCF7): 6.22 µM

CCN(CC)CCNc1ncnc2ccc(-c3cnc(OC)c(C#N)c3)cc12
IC50 (HCT-116): 2.05 µM | IC50 (MCF7): 3.86 µM

COc1ccc(-c2ccc3ncnc(NCCN4CCOCC4)c3c2)cn1
IC50 (HCT-116): 38.6 µM | IC50 (MCF7): 34.3 µM

COc1ncc(-c2ccc3ncnc(NCCN4CCCCC4)c3c2)cc1[N+](=O)[O-]
IC50 (HCT-116): 0.65 µM | IC50 (MCF7): 8.61 µM | IC50 [1]: 3.17 µM

COc1ccc(-c2ccc3ncnc(NCCN4CCOCC4)c3c2)cc1C(N)=O
IC50 (HCT-116): 24.4 µM | IC50 (MCF7): 29.3 µM

CCN(CC)CCNc1ncnc2ccc(-c3ccc(OC)nc3)cc12
IC50 (HCT-116): 9.56 µM | IC50 (MCF7): 8.74 µM

COc1ccc(-c2ccc3ncnc(NCCN4CCCC4)c3c2)cn1
IC50 (HCT-116): 3.91 µM | IC50 (MCF7): 10.1 µM
